Key:
[1] = system: Neurospora crassa strain SGF 18; experiment: modified screening method of detecting cell-wall active compounds; assay type: cell-based
Description: Fermentation carried out for about 90 hours under submerged condition in shake flasks in order to achieve the maximum activity is particularly preferred. The progress of fermentation and the formation of Arthrichitin of the present invention can be detected by the modified screening method of detecting the cell-wall active compounds [J. Antibiotics, 39(11), 1620-1622, 1986] using the Neurospora crassa strain SGF 18.
The production of Arthrichitin was monitored by using the modified screening method of detecting cell-wall active compounds [J. Antibiot., 39 (11), 1620-22, 1986] using the Neurospora crassa strain SGF 18 and growing it in a medium containing the following nutrients : soluble starch 1.5%; Yeast extract 0.4%; K2HPO4 0.1 %; MgSO4.7H2O 0.05%; D-Sorbitol 7.5% (Osmotic stabilizer); L-Sorbose 2.5% (Glucan synthesis inhibitor) and agar 1.5%.

[2] = solubility (physico-chemical properties); assay type: physicochemical
Excerpt: The physico-chemical properties of Arthrichitin are as follows : Appearance : Colorless solid Solubility : Soluble in methanol and dimethylsulfoxide; insoluble in petroleum ether, chloroform, ethylacetate and water. Molecular weight : 642 (FAB MS) (Matrix : 3-nitrobenzyl alcohol) Molecular formula : C33H46N4O9 (calculated : […]; [observed : m/z 643.3341 (M + H)^+ (HR FAB-MS; matrix : MeOH/NBA; internal reference : polyethylene glycol 600); calculated for C33H47N4O9 : 643.3345] Melting point : 245°C [α]D : + 24.12°C (c 0.475, MeOH) HPLC retention time : 5.4 minutes [4 x (30 + 100) mm 10µ ODS ®Hypersil column; mobile phase : 35% acetonitrile in 0.02 M aqueous sodium phosphate buffer, pH 7.0; flow rate : 1 ml/min.; UV detection : 220 nm] UV λmax (MeOH) : 247, 266, 310 nm; no shift with acid and alkali IR (KBr) : Figure 1 ^1H NMR (300 MHz, DMSO-d6) : Figure 2 ^13C NMR (75 MHz, DMSO-d6) : Figure 3

Phytophthora infestans = conditions: in vivo
Botrytis cinerea = experiment: in vivo activity against phytopathogenic fungi
Plasmopara viticola = experiment: in vivo activity against phytopathogenic fungi
Septoria nodorum = experiment: in vivo activity against phytopathogenic fungi
Pyricularia oryzae = conditions: in vivo
Erysiphe graminis = experiment: in vivo activity against phytopathogenic fungi
[3] = system: Pseudocercosporella herpotrichoides; experiment: in vivo activity against phytopathogenic fungi

CCCCCCCCC(C)C1OC(=O)C(CO)NC(=O)C(C(=O)c2c[nH]c3ccccc23)NC(=O)C(CCC(=O)O)NC(=O)C1C (centres unmarked) [Arthrichitin]
activity as cell wall inhibiting compound [1]: activity as cell wall inhibiting compound
Solubility ([2]; chloroform): insoluble
Solubility ([2]; dimethylsulfoxide): Soluble
Solubility ([2]; ethylacetate): insoluble
Solubility ([2]; methanol): Soluble
Solubility ([2]; petroleum ether): insoluble
Solubility ([2]; water): insoluble
activity against Phytophthora infestans (Phytophthora infestans): very good activity
activity against Botrytis cinerea (Botrytis cinerea): very good activity
activity against Plasmopara viticola (Plasmopara viticola): very good activity
activity against Septoria nodorum (Septoria nodorum): very good activity
activity against Pyricularia oryzae (Pyricularia oryzae): very good activity
activity against Erysiphe graminis (Erysiphe graminis): very good activity
activity against Pseudocercosporella herpotrichoides [3]: very good activity
